Experimental data as given in patent publication US12077503B2, “Substituted cyclic amides and their use as herbicides” (FMC CORPORATION, priority 2015, dated 2024).

Assays:
Assay type in all cases: in vivo
[1] = tested on: velvetleaf (Abutilon theophrasti); experiment: Test G Pre-Emergence Protocol; settings: Abutilon theophrasti, pre-emergence, 312 h, evaluated after 13 days; for pest or weed control at 15.625 g/ha: 15.625 g ai/ha; for pest or weed control at 15.625 g/ha / pest or weed control at 250 g/ha: read-out: Velvetleaf damage rating (100=total damage to plant; 0=no damage to plant); for pest or weed control at 62.5 g/ha: 62.5 g ai/ha, 100=total damage to plant, 0=no damage to plant, read-out: plant damage rating, Velvetleaf; for pest or weed control at 250 g/ha: 250 g ai/ha
Outline: (§1)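 Under a 24/16° C day/night regime with 14 h light and 65% humidity, sown pots were sprayed after one day with compound (15.625, 62.5 or 250 g/ha; 50:50 acetone/water, 0.5% Tween 20). Damage was assessed visually 13 days later, 0 to 100.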

[2] = tested on: giant foxtail (Setaria faberi); experiment: Test G Pre-Emergence Protocol; settings: Setaria faberi, pre-emergence, 312 h, evaluated after 13 days; for pest or weed control at 15.625 g/ha: 15.625 g ai/ha; for pest or weed control at 15.625 g/ha / pest or weed control at 250 g/ha: read-out: Foxtail, Giant damage rating (100=total damage to plant; 0=no damage to plant); for pest or weed control at 62.5 g/ha: 62.5 g ai/ha, 100=total damage to plant, 0=no damage to plant, read-out: plant damage rating, Foxtail, Giant; for pest or weed control at 250 g/ha: 250 g ai/ha
Outline: as §1

[3] = tested on: barnyardgrass (Echinochloa crus-galli); experiment: Test G Pre-Emergence Protocol; settings: Echinochloa crus-galli, pre-emergence, 312 h, evaluated after 13 days; for pest or weed control at 15.625 g/ha: 15.625 g ai/ha, read-out: Barnyard grass damage rating (100=total damage to plant; 0=no damage to plant); for pest or weed control at 62.5 g/ha: 62.5 g ai/ha, 100=total damage to plant, 0=no damage to plant, read-out: plant damage rating, Barnyardgrass; for pest or weed control at 250 g/ha: 250 g ai/ha, read-out: Barnyardgrass damage rating (100=total damage to plant; 0=no damage to plant)
Outline: as §1

corn (Zea mays) [4] = experiment: Test G Pre-Emergence Protocol; settings: Zea mays, pre-emergence, 312 h, evaluated after 13 days; for plant injury at 15.625 g/ha: 15.625 g ai/ha; for plant injury at 15.625 g/ha / plant injury at 250 g/ha: read-out: Corn damage rating (100=total damage to plant; 0=no damage to plant); for plant injury at 62.5 g/ha: 62.5 g ai/ha, 100=total damage to plant, 0=no damage to plant, read-out: plant damage rating, Corn; for plant injury at 250 g/ha: 250 g ai/ha
Outline: as §1

[5] = tested on: redroot pigweed (Amaranthus retroflexus); experiment: Test G Pre-Emergence Protocol; settings: Amaranthus retroflexus, pre-emergence, 312 h, evaluated after 13 days; for pest or weed control at 15.625 g/ha: 15.625 g ai/ha; for pest or weed control at 15.625 g/ha / pest or weed control at 250 g/ha: read-out: Pigweed, Redroot damage rating (100=total damage to plant; 0=no damage to plant); for pest or weed control at 62.5 g/ha: 62.5 g ai/ha, 100=total damage to plant, 0=no damage to plant, read-out: plant damage rating, Pigweed, Redroot; for pest or weed control at 250 g/ha: 250 g ai/ha
Outline: as §1

[6] = tested on: ivy-leaved morning glory (Ipomoea hederacea); experiment: Test G Pre-Emergence Protocol; settings: Ipomoea, pre-emergence, 312 h, evaluated after 13 days; for pest or weed control at 15.625 g/ha: 15.625 g ai/ha, read-out: Morning-glory, Ivy-leaved damage rating (100=total damage to plant; 0=no damage to plant); for pest or weed control at 62.5 g/ha: 62.5 g ai/ha, 100=total damage to plant, 0=no damage to plant, read-out: plant damage rating, Morningglory, Ivy-leaved; for pest or weed control at 250 g/ha: 250 g ai/ha, read-out: Morningglory, Ivy-leaved damage rating (100=total damage to plant; 0=no damage to plant)
Outline: as §1

[7] = tested on: velvetleaf (Abutilon theophrasti); experiment: Test G Post-Emergence Protocol; settings: Abutilon theophrasti, post-emergence, 312 h; for pest or weed control at 15.625 g/ha: 15.625 g ai/ha, evaluated after 13 days (100=total damage to plant; 0=no damage to plant), read-out: Velvetleaf damage rating; for pest or weed control at 62.5 g/ha: 62.5 g ai/ha, read-out: Velvetleaf damage rating (100=total damage to plant; 0=no damage to plant); for pest or weed control at 62.5 g/ha / pest or weed control at 250 g/ha: evaluated after 13 days; for pest or weed control at 250 g/ha: 250 g ai/ha, read-out: damage to plant, Velvetleaf (100=total damage to plant; 0=no damage to plant)
Outline: (§2)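 Scores run 0 (no damage) to 100 (total damage) and were taken 13 days after spraying. Plants had been raised in pots for 8 days under glasshouse control (24/16 °C, 14 h photoperiod, 65% humidity) and then treated at 15.625, 62.5 or 250 g/ha.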

[8] = tested on: giant foxtail (Setaria faberi); experiment: Test G Post-Emergence Protocol; settings: Setaria faberi, post-emergence, 312 h; for pest or weed control at 15.625 g/ha: 15.625 g ai/ha, evaluated after 13 days (100=total damage to plant; 0=no damage to plant), read-out: Foxtail, Giant damage rating; for pest or weed control at 62.5 g/ha: 62.5 g ai/ha, read-out: Foxtail, Giant damage rating (100=total damage to plant; 0=no damage to plant); for pest or weed control at 62.5 g/ha / pest or weed control at 250 g/ha: evaluated after 13 days; for pest or weed control at 250 g/ha: 250 g ai/ha, read-out: damage to plant, Foxtail, Giant (100=total damage to plant; 0=no damage to plant)
Outline: as §2

[9] = tested on: barnyardgrass (Echinochloa crus-galli); experiment: Test G Post-Emergence Protocol; settings: Echinochloa crus-galli, post-emergence, 312 h; for pest or weed control at 15.625 g/ha: 15.625 g ai/ha, evaluated after 13 days (100=total damage to plant; 0=no damage to plant), read-out: Barnyardgrass damage rating; for pest or weed control at 62.5 g/ha: 62.5 g ai/ha, read-out: Barnyardgrass damage rating (100=total damage to plant; 0=no damage to plant); for pest or weed control at 62.5 g/ha / pest or weed control at 250 g/ha: evaluated after 13 days; for pest or weed control at 250 g/ha: 250 g ai/ha, read-out: damage to plant, Barnyardgrass (100=total damage to plant; 0=no damage to plant)
Outline: as §2

corn (Zea mays) [10] = experiment: Test G Post-Emergence Protocol; settings: Zea mays, post-emergence, 312 h; for plant injury at 15.625 g/ha: 15.625 g ai/ha, evaluated after 13 days (100=total damage to plant; 0=no damage to plant), read-out: Corn damage rating; for plant injury at 62.5 g/ha: 62.5 g ai/ha, read-out: Corn damage rating (100=total damage to plant; 0=no damage to plant); for plant injury at 62.5 g/ha / plant injury at 250 g/ha: evaluated after 13 days; for plant injury at 250 g/ha: 250 g ai/ha, read-out: damage to plant, Corn (100=total damage to plant; 0=no damage to plant)
Outline: as §2

[11] = tested on: redroot pigweed (Amaranthus retroflexus); experiment: Test G Post-Emergence Protocol; settings: Amaranthus retroflexus, post-emergence, 312 h; for pest or weed control at 15.625 g/ha: 15.625 g ai/ha, evaluated after 13 days (100=total damage to plant; 0=no damage to plant), read-out: Pigweed, Redroot damage rating; for pest or weed control at 62.5 g/ha: 62.5 g ai/ha, read-out: Pigweed, Redroot damage rating (100=total damage to plant; 0=no damage to plant); for pest or weed control at 62.5 g/ha / pest or weed control at 250 g/ha: evaluated after 13 days; for pest or weed control at 250 g/ha: 250 g ai/ha, read-out: damage to plant, Pigweed, Redroot (100=total damage to plant; 0=no damage to plant)
Outline: as §2

[12] = tested on: ivy-leaved morning glory (Ipomoea hederacea); experiment: Test G Post-Emergence Protocol; settings: Ipomoea, post-emergence, 312 h; for pest or weed control at 15.625 g/ha: 15.625 g ai/ha, evaluated after 13 days (100=total damage to plant; 0=no damage to plant), read-out: Morningglory, Ivy-leaved damage rating; for pest or weed control at 62.5 g/ha: 62.5 g ai/ha, read-out: Morningglory, Ivy-leaved damage rating (100=total damage to plant; 0=no damage to plant); for pest or weed control at 62.5 g/ha / pest or weed control at 250 g/ha: evaluated after 13 days; for pest or weed control at 250 g/ha: 250 g ai/ha, read-out: damage to plant, Morningglory, Ivy-leaved (100=total damage to plant; 0=no damage to plant)
Outline: as §2

SMILES | pest or weed control at 15.625 g/ha [1] | pest or weed control at 62.5 g/ha [1] | pest or weed control at 250 g/ha [1] | pest or weed control at 15.625 g/ha [2] | pest or weed control at 62.5 g/ha [2] | pest or weed control at 250 g/ha [2] | pest or weed control at 15.625 g/ha [3] | pest or weed control at 62.5 g/ha [3] | pest or weed control at 250 g/ha [3] | plant injury at 15.625 g/ha (corn (Zea mays) [4]) | plant injury at 62.5 g/ha (corn (Zea mays) [4]) | plant injury at 250 g/ha (corn (Zea mays) [4]) | pest or weed control at 15.625 g/ha [5] | pest or weed control at 62.5 g/ha [5] | pest or weed control at 250 g/ha [5] | pest or weed control at 15.625 g/ha [6] | pest or weed control at 62.5 g/ha [6] | pest or weed control at 250 g/ha [6] | pest or weed control at 15.625 g/ha [7] | pest or weed control at 62.5 g/ha [7] | other results
Cc1cc(C(F)(F)F)ccc1NC(=O)[C@H]1C(=O)N(C)C[C@@H]1c1ccc(C(F)(F)F)cc1 (racemic) [Compound 1411] | 0% | 0% | 0% | 0% | 0% | 0% | 0% | 0% | 0% | 0% | 0% | 0% | 0% | 0% | 0% | 0% | 0% | 0% | 0% | 0% | pest or weed control at 250 g/ha [7]: 0%; pest or weed control at 15.625 g/ha [8]: 0%; pest or weed control at 62.5 g/ha [8]: 0%; pest or weed control at 250 g/ha [8]: 0%; pest or weed control at 15.625 g/ha [9]: 0%; pest or weed control at 62.5 g/ha [9]: 0%; pest or weed control at 250 g/ha [9]: 0%; plant injury at 15.625 g/ha (corn (Zea mays) [10]): 0%; plant injury at 62.5 g/ha (corn (Zea mays) [10]): 0%; plant injury at 250 g/ha (corn (Zea mays) [10]): 0%; pest or weed control at 15.625 g/ha [11]: 0%; pest or weed control at 62.5 g/ha [11]: 0%; pest or weed control at 250 g/ha [11]: 0%; pest or weed control at 15.625 g/ha [12]: 0%; pest or weed control at 62.5 g/ha [12]: 0%; pest or weed control at 250 g/ha [12]: 0%
CN1C[C@H](c2ccc(C(F)(F)F)cc2)[C@@H](C(=O)Nc2ccc(F)c(F)c2)C1=O (racemic) [Compound 1412] | 0% | 0% | 10% | 10% | 50% | 80% | 0% | 30% | 60% | 0% | 10% | 10% | 20% | 20% | 10% | 0% | 0% | 0% | 0% | 40% | pest or weed control at 250 g/ha [7]: 40%; pest or weed control at 15.625 g/ha [8]: 0%; pest or weed control at 62.5 g/ha [8]: 60%; pest or weed control at 250 g/ha [8]: 70%; pest or weed control at 15.625 g/ha [9]: 0%; pest or weed control at 62.5 g/ha [9]: 50%; pest or weed control at 250 g/ha [9]: 60%; plant injury at 15.625 g/ha (corn (Zea mays) [10]): 20%; plant injury at 62.5 g/ha (corn (Zea mays) [10]): 10%; plant injury at 250 g/ha (corn (Zea mays) [10]): 10%; pest or weed control at 15.625 g/ha [11]: 30%; pest or weed control at 62.5 g/ha [11]: 40%; pest or weed control at 250 g/ha [11]: 40%; pest or weed control at 15.625 g/ha [12]: 0%; pest or weed control at 62.5 g/ha [12]: 0%; pest or weed control at 250 g/ha [12]: 20%
